# In patent US20020035097A1, “Method of preventing and treating chemotherapy-induced alopecia” (priority 1991, published 2002):
# Several values for one entry are separate records, joined by “and”; a condition that tells them apart may be missing. Identical values can stand only once. Entries after “also recorded” stand apart in the source; their conditions may differ.
# What was measured:
# [1] = system: Cytoxan/Adriamycin-induced alopecia; test: Cytoxan/Adriamycin combination-induced alopecia in young rats; format: in vivo, rat; settings: 0.2 μg in 0.15 ml absolute ethanol topically over head and neck, pretreatment; 11 rats per group
# Method: Eight 4-day old Sprague Dawley rats were randomized in two groups of 4 rats each. Group I, received EGF […] s.c. on the head daily for 7 days. Group II received buffer injections and served as controls. One day after stopping EGF or buffer injections all rats received Cytoxan 25 mg/kg i.p.×1 day and Adriamycin 2.5 mg/kg i.p.×3 days. […] (FIG. 5).
# (§1) 1,25-Dihydroxyvitamin D3 was dissolved in absolute ethanol and applied topically with an applicator. Control animals were similarly treated with the same amount of ethanol. Animals were then kept individually separated for a period of three hours following which the treated area was carefully washed with soap and water and dried. Treatment was given daily beginning on day 5 after birth and ending on day 10.
# All chemotherapies were given I.P. and started at 11 days of age. CTX, 35 mg/kg, was given for one day only. VP-16, 1.5 mg/kg, was given for three days. For CTX and ADM combination, CTX, 25 mg/kg was given for one day and ADM, 2.5 mg/kg, for three days. […] Alopecia was recorded on the tenth day from beginning chemotherapy.
# A total of 4 experiments were carried out. In the first experiment, protection from Cytoxan-induced alopecia was examined. The experimental group was pretreated with 0.2 μg of 1,25-dihydroxyvitamin D3 in 0.15 ml of absolute ethanol applied topically over the head and neck and the control group received 0.15 ml of alcohol. […] The second experiment was carried out under similar conditions to examine protection from VP-16-induced alopecia. […] The third experiment was designed to examine protection from alopecia induced by Cytoxan-Adriamycin combination. There were 11 rats in each group. […] In the fourth experiment, protection from VP-16-induced alopecia was similarly examined except that the dose of 1,25-dihydroxyvitamin D3 was reduced to 0.1 μg in 0.1 ml absolute ethanol applied topically over the head area only.
# [2] = system: VP-16-induced alopecia; test: VP-16 (Etoposide)-induced alopecia in young rats; format: in vivo, rat
# Method: Twelve 7 day old rats were randomized in two groups. Group I was treated daily with buffer 0.1 ml s.c. for four days. The second Group was treated daily with Vitamin D3 50 μg s.c. over head for four days. After stopping the buffer or Vitamin D3 treatment, all rats received 1.5 mg/kg i.p. of VP-16 (Etoposide) daily for three days.
# as §1
# All chemotherapies were given I.P. and started at 11 days of age. CTX, 35 mg/kg, was given for one day only. VP-16, 1.5 mg/kg, was given for three days. For CTX and ADM combination, CTX, 25 mg/kg was given for one day and ADM, 2.5 mg/kg, for three days. At these doses neither CTX nor ADM alone will produce alopecia. Alopecia was recorded on the tenth day from beginning chemotherapy.
# A total of 4 experiments were carried out. In the first experiment, protection from Cytoxan-induced alopecia was examined. The experimental group was pretreated with 0.2 μg of 1,25-dihydroxyvitamin D3 in 0.15 ml of absolute ethanol applied topically over the head and neck and the control group received 0.15 ml of alcohol. All 10 rats in the control group became totally alopecic. […] The second experiment was carried out under similar conditions to examine protection from VP-16-induced alopecia. All 10 rats in the control group developed total body alopecia. […] The third experiment was designed to examine protection from alopecia induced by Cytoxan-Adriamycin combination. There were 11 rats in each group. Six rats in the control group developed alopecia over the head and neck and 5 rats developed total body alopecia. […] In the fourth experiment, protection from VP-16-induced alopecia was similarly examined except that the dose of 1,25-dihydroxyvitamin D3 was reduced to 0.1 μg in 0.1 ml absolute ethanol applied topically over the head area only. All 10 rats in the control group became completely alopecic.
# as §1, with “RO 23-7553 (1,25 dihydroxy-16-ene-23-yne-cholecalciferol)” for “1,25-Dihydroxyvitamin D3”, “9” for “5”, “14.” for “10.”
# On day 15 all animals received VP-16, 1.5 mg/kg i.p., for three days. Alopecia was recorded on day 25.
# Thirteen rats were randomized in two groups. Experimental group, 7 rats; control group, 6 rats. The experimental group was pretreated with 1 μg of RO 23-7553 in 0.2 ml absolute ethanol applied topically over the neck and back and the control group received 0.2 ml of absolute ethanol. All six rats in the control group became totally alopecic over the neck and back.
# [3] = system: Cytoxan-induced alopecia; test: Cytoxan-induced alopecia in young rats; format: in vivo, rat; settings: 0.2 μg in 0.15 ml absolute ethanol topically over head and neck, pretreatment; CTX 35 mg/kg one day
# [4] = system: hair growth; test: Stimulation of hair regrowth on shaven backs of rats; format: in vivo, rat
# Method: The backs of nineteen 25 day old Sprague Dawley rats were shaven and randomized in two groups.
# Group I (control 10 rats) received 0.1 ml of ethanol applied topically once daily to the shaven area for 14 days.
# Group II (Calcitriol 9 rats) received 50 ng of 1,25-dihydroxyvitamin D3 in 0.1 ml of ethanol applied topically once daily to the shaven area for 14 days.
# On day 15 stimulation of hair regrowth was assessed by reshaving an area 6 cm×6 cm in diameter. The hair was collected and weighed. The difference between two groups was highly statistically significant. P. value 0.003 (see Table III and FIG. 11).
# [5] = system: hair growth; test: as above; format: in vivo, rat; settings: noted in rats during the chemotherapy-induced alopecia studies
# [6] = system: EGF receptors on breast cancer cells; settings: literature; cited from earlier work
# [7] = system: EGF receptors on a cell line established from rat calvaria; settings: literature; cited from earlier work
compound,measurement,setting,value
"C=C1/C(=C\C=C2/CCC[C@]3(C)[C@@H]([C@H](C)CCCC(C)(C)O)CC[C@@H]23)C[C@@H](O)C[C@@H]1O [1,25-dihydroxyvitamin D3]",Protection from alopecia induced by Cytoxan-Adriamycin combination,[1],all rats in the experimental group were protected
same,Protection from VP-16-induced alopecia,"[2]; 0.1 μg in 0.1 ml absolute ethanol topically over the head area only, pretreatment, VP-16 1.5 mg/kg for three days","protected primarily at the site of 1,25-dihydroxyvitamin D3 application; also recorded: less generalized and was more limited to the site of application"
same,Protection from VP-16-induced alopecia,"[2]; 0.2 μg in 0.15 ml absolute ethanol topically over head and neck, pretreatment, VP-16 1.5 mg/kg for three days",all rats in the experimental group were protected
same,Extent of protection,"[2]; 0.2 μg topically over head and neck, stated for the CTX, VP-16 and CTX+ADM experiments together",not limited to the site of application but involved the entire body
same,Protection from VP-16-induced alopecia,[2]; applied topically 0.5 μg daily in 50% ethanol or DMSO,protected
same,Protection from Cytoxan-induced alopecia,[3],all animals in the experimental group were protected
same,"Hair Weight, Mean S.E.M.","[4]; 50 ng in 0.1 ml ethanol topically once daily for 14 days, 9 rats, day 15, P value 0.003 vs control",164 ± 13 Mg
same,Hair Weight (individual rats),"[4]; 50 ng in 0.1 ml ethanol topically once daily to shaven area for 14 days, 6 cm×6 cm area reshaved on day 15, listed as Calcitriol",130 Mg and 177 Mg and 140 Mg and 147 Mg and 135 Mg and 202 Mg and 143 Mg and 150 Mg and 253 Mg
same,Effect on hair growth,[4]; administered topically in the rat,stimulation of hair growth
same,Coat and hair in the treated area,[5],better coat of hair and longer hair in the treated area
same,Effect on EGF receptors,[6],increase EGF receptors
same,Effect on EGF receptors,[7],increase EGF receptors
